According to US11559512B2, “Composition for prevention, alleviation, and/or treatment of heat illness” (priority 2017, dated 2023):

Assays:
[1] = system: human vascular endothelial cells (HUVECs)
Method: Then, 2 mL of trypsin/EDTA was added to the cells, and the cells were detached by incubation at 37° C. in a 5% CO2 environment. After the cell detachment, 5 mL/dish of a culture medium was added, and the cells were transferred to a 15-mL tube and centrifuged at 1200 rpm for 5 minutes in a centrifuge. The supernatant was removed, and then, the number of cells was adjusted to a cell density of 5×10^4 cells/mL using a cell counting kit by the addition of 5 mL of a culture medium. Then, two 6-well plates were used, and the solution with the adjusted HUVEC density was inoculated at 4 mL/well to 3 wells of each plate. Each phytochemical component was added at 4 μL (final concentration: 10 μM)/well to one well of each plate. Also, a phytochemical dissolving solution DMSO was added at 4 μL/well to the remaining wells to prepare a control. […]
Serial dilutions of auraptene were added to the cells, and the cell death of the HUVECs caused by heat stress was observed by crystal violet staining.

[2] = system: PPARγ; experiment: PPARγ expression in HUVECs, antibody staining, confocal microscopy; type: cell-based, human
Method: Then, six 35-mm dishes were provided, and 2 mL/dish of the solution with the adjusted HUVEC density was inoculated. Auraptene (10 mM) and tangeretin (10 mM) were each added at 2 μL (final concentration: 10 μM)/dish to two dishes. Also, DMSO was added at 2 μL/dish to the remaining 2 dishes to prepare a control.
The supernatant of the HUVECs cultured in each 35-mm dish was removed, and 2 mL/dish of 4% paraformaldehyde in a phosphate buffer solution was added. The cells were left standing at room temperature for 1 hour.
The solution was removed, and then, the cells were rinsed twice. 2 mL/dish of 0.5% Triton-X00 (Wako Pure Chemical Industries, Ltd.) in PBS was added, and the cells were left standing at room temperature for 5 minutes. The solution was removed, and then, the cells were rinsed twice. 1 mL/dish of an anti-ABCD3 antibody, an anti-PPARα antibody or an anti-PPARγ antibody, each of which was diluted 150-fold with a FACS buffer, was added, and the cells were left standing at room temperature for 2 hours for reaction.
The solution was removed, and then, the cells were rinsed twice. 1 mL/dish of DyLight 649-labeled anti-Rabbit IgG antibody diluted 500-fold with a FACS buffer was added, and the cells were left standing at room temperature for 1 hour in the dark for reaction. The solution was removed, and then, the cells were rinsed twice. Two drops of Diamond Antifade Mountant with DAPI were added to the cells, and a round glass cover was put on the cells, followed by fluorescence photographing under a confocal laser scanning microscope.

[3] = Table 2 summary, HUVECs 40° C., 37° C. as comparative control

SMILES: CC(C)=CCC/C(C)=C/COc1ccc2ccc(=O)oc2c1 [auraptene, 7-geranyloxycoumarin]
- cell survival by crystal violet staining ([1]; HUVECs cultured at 40° C. for 3 days, vs DMSO): evidently increased cell survival
- concentration at which the cell death suppressive effect was confirmed (value in brackets) ([1]; HUVECs, 40° C. for 3 days, crystal violet staining): 600 nM
- concentration at which the cell death suppressive effect was confirmed ([1]; HUVECs, 40° C. for 3 days, serial dilutions, crystal violet staining): 0.6 µM
- Cytotoxicity (cell death) [1, 3]: Suppressed
- expression of PPARγ ([2]; HUVECs, 40° C. and 1 day, 10 μM, vs DMSO): increase in the expression of PPARγ
- PPARγ [2, 3]: Unchanged
